Test results taken from patent US11814364B2, “Pyridine N-oxide derivatives useful as factor XIa inhibitors” (Janssen Pharmaceutica NV, priority 2021, dated 2023).

target: human plasma kallikrein (Homo sapiens, UniProt P03952); assay: Kallikrein inhibition FLINT assay with quenched AMC peptide substrate Z-Gly-Pro-Arg-AMC (end point EP or kinetic KIN reads); type: biochemical; details: kinetic reads at 5 min intervals over 30 min; read-out: Kallikrein (KIN) IC50
Summary of the method: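 Enzyme and compound were preincubated 30 min before adding 50 μM AMC substrate in pH 7.5 Tris/NaCl/CaCl2/BSA/CHAPS buffer. AMC release was read at 30 min endpoint or every 5 min.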

Chain of human plasma kallikrein (P03952 391-638 limits assumed): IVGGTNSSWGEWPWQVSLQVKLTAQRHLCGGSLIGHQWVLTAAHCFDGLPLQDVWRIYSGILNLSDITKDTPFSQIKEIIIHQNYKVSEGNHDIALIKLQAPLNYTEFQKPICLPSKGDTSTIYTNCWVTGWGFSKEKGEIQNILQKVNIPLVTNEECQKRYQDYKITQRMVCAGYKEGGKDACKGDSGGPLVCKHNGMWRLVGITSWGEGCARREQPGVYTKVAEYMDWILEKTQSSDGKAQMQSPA
Chain of human plasma kallikrein (P03952 20-390 partner limits assumed): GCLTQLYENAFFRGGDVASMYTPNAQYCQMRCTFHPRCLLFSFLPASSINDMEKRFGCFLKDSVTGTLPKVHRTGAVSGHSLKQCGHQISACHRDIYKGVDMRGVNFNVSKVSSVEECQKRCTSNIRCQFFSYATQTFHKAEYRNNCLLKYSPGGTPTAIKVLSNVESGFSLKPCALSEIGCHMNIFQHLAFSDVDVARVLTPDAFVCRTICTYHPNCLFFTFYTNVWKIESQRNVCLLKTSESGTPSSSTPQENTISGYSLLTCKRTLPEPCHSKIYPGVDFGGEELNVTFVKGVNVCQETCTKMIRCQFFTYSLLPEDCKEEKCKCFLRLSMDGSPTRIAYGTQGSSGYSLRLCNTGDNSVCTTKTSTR

Row | Structure (SMILES) | IC50 [nM]
1 | CC(C)n1ccc(C[C@H](c2ccc(-c3c(-n4cnnn4)ccc(Cl)c3F)c[n+]2[O-])n2cc(-c3ccnc(C(F)(F)F)c3)cn2)n1 [Example P652] | 2.2
2 | Cn1ncnc1-c1cnn([C@H](CCOC(F)F)c2ccc(-c3c(-n4cc(C5CC5)nn4)ccc(Cl)c3F)c[n+]2[O-])c1 [Example P781] | 203
3 | CCC(c1cc(OC)c(-c2cc(Cl)ccc2-n2cc(C(F)(F)F)nn2)c[n+]1[O-])n1cc(-c2ccc(C(N)=O)c(F)c2)cn1 (single isomer, unassigned) [Example P878] | 2.7
4 | COC(=O)N(C)CC(c1ccc(-c2c(-n3cnnn3)ccc(Cl)c2F)c[n+]1[O-])n1cc(-c2cc[n+]([O-])c(C(F)F)c2)cn1 (single isomer, unassigned) [Example P392] | 64.1
5 | COc1cc(C(Cc2ccn(C(F)F)n2)n2cc(-c3ccc(C(N)=O)c(F)c3)cn2)[n+]([O-])cc1-c1cc(Cl)ccc1C(C)=O (single isomer, unassigned) [Example Q77] | 9.8
6 | COC(=O)N(C)CC(c1ccc(-c2c(-n3cnnn3)ccc(Cl)c2F)c[n+]1[O-])n1cc(-c2ccnc(C(F)(F)F)c2)cn1 (single isomer, unassigned) [Example P381] | 36.6
7 | [O-][n+]1cccc(-c2cnn(C(Cc3ccc(Cl)cc3)c3ccc(-c4cc(Cl)ccc4-n4cnnn4)c[n+]3[O-])c2)c1 (centres unmarked) [Example P151] | 80.1
8 | O=C(NC1CC1)c1ccc(-c2cnn(C(CC3CCCCO3)c3ccc(-c4c(-n5cnnn5)ccc(Cl)c4F)c[n+]3[O-])c2)cc1 (single isomer, unassigned) [Example P77] | 36.2
9 | COC(=O)Nc1ccc(-c2cnn(C(CC3CCCO3)c3ccc(-c4c(-n5cnnn5)ccc(Cl)c4F)c[n+]3[O-])c2)cc1 (centres unmarked) [Example P203] | 63.3
10 | Cc1ncn(-c2cnn(C(CCOC(F)F)c3ccc(-c4c(-n5cc(OC(F)F)nn5)ccc(Cl)c4F)c[n+]3[O-])c2)n1 (single isomer, unassigned) [Example P825] | 588
11 | COc1ccc(CC(c2ccc(-c3cc(Cl)ccc3-n3cnnn3)c[n+]2[O-])n2cc(-c3ccc(C(=O)O)cc3)cn2)cc1 (centres unmarked) [Example P64] | 5.3
12 | NC(=O)c1ccc(-c2cnn(C(Cc3ncon3)c3ccc(-c4c(-n5cc(C(F)(F)F)nn5)ccc(Cl)c4F)c[n+]3[O-])c2)cc1F (centres unmarked) [Example P915] | 20.2
13 | O=C(NC1CC1)c1ccc(-c2cnn(C(CC3CCCCO3)c3ccc(-c4c(-n5cnnn5)ccc(Cl)c4F)c[n+]3[O-])c2)cc1 (single isomer, unassigned) [Example P142] | 108
14 | CN(CC(c1ccc(-c2c(-n3cnnn3)ccc(Cl)c2F)c[n+]1[O-])n1cc(-c2ccnc(C(F)(F)F)c2)cn1)C(=O)c1ccn(C)c(=O)c1 (single isomer, unassigned) [Example P434] | 427
15 | Cn1ncnc1-c1cnn(C(CCOC(F)F)c2ccc(-c3c(-n4cc(C(F)(F)F)nn4)ccc(Cl)c3F)c[n+]2[O-])c1 (centres unmarked) [Example P757] | 31.9
16 | NC(=O)C1CC1CC(c1ccc(-c2c(-n3cnnn3)ccc(Cl)c2F)c[n+]1[O-])n1cc(-c2ccncc2)cn1 (centres unmarked) [Example P260] | 72.5
17 | [O-][n+]1cc(-c2c(-n3cnnn3)ccc(Cl)c2F)ccc1C(CC1CC1)n1cc(-c2cnco2)cn1 (centres unmarked) [Example P497] | 169
18 | COC(=O)N(C)CC(c1ccc(-c2c(-n3cnnn3)ccc(Cl)c2F)c[n+]1[O-])n1cc(-c2ccnc(F)c2)cn1 (single isomer, unassigned) [Example P356] | 30.7
19 | COC(=O)Nc1ccc(-c2cnn(C(CC3CC3C(=O)N3CCCC(c4ccccc4)C3)c3ccc(-c4c(-n5cnnn5)ccc(Cl)c4F)c[n+]3[O-])c2)cc1 (centres unmarked) [Example P222] | 189
20 | COC(=O)Nc1ccc(-c2cnn(C(Cn3cccn3)c3ccc(-c4c(-n5cnnn5)ccc(Cl)c4F)c[n+]3[O-])c2)cc1 (centres unmarked) [Example P214] | 6.3
21 | COc1cc(C(CC2CC2)n2cc(-c3ccc(C(N)=O)c(F)c3)cn2)[n+]([O-])cc1-c1cc(Cl)ccc1C#N (centres unmarked) [Example Q59] | 25.2
22 | O=C(O)c1ccc(-c2cnn(C(Cc3nccs3)c3ccc(-c4c(-n5cc(C(F)(F)F)nn5)ccc(Cl)c4F)c[n+]3[O-])c2)cc1F (centres unmarked) [Example P941] | 12.2
23 | NC(=O)C1CC1CC(c1ccc(-c2cc(Cl)ccc2-n2cnnn2)c[n+]1[O-])n1cc(-c2ccc(C(=O)O)cc2)cn1 (centres unmarked) [Example P114] | 184
24 | O=C(O)c1ccc(-c2cnn(C(CC3CC3C(=O)N3CCC(c4ccccc4)C3)c3ccc(-c4cc(Cl)ccc4-n4cnnn4)c[n+]3[O-])c2)cc1 (single isomer, unassigned) [Example P99] | 2370

Next, values leading:

Row | IC50 [nM] | Structure (SMILES)
25 | 320 | NC(=O)C1CC1CC(c1ccc(-c2c(-n3cnnn3)ccc(Cl)c2F)c[n+]1[O-])n1cc(-c2ccc(N)nc2F)cn1 (single isomer, unassigned) [Example P341]
26 | 74.5 | NC(=O)C1CC1CC(c1ccc(-c2c(-n3cnnn3)ccc(Cl)c2F)c[n+]1[O-])n1cc(-c2ccc(N)nc2F)cn1 (single isomer, unassigned) [Example P338]
27 | 544 | NC(=O)c1ccc(-c2cnn(C(Cc3ccn(C(F)F)n3)c3ccc(-c4c(OC(F)F)ccc(Cl)c4F)c[n+]3[O-])c2)cc1F (single isomer, unassigned) [Example Q72]
28 | 420 | Nc1ccc(-c2cnn(C(Cn3cc(F)cn3)c3ccc(-c4c(C(F)F)ccc(Cl)c4F)c[n+]3[O-])c2)c(F)n1 (single isomer, unassigned) [Example Q26]
29 | 238 | Cn1nnc(F)c1-c1cnn(C(CCOC(F)F)c2ccc(-c3c(-c4cnco4)ccc(Cl)c3F)c[n+]2[O-])c1 (centres unmarked) [Example P846]
30 | 10 | COc1cc(C(Cc2ccn(C(F)F)n2)n2cc(-c3ccc(C(N)=O)c(F)c3)cn2)[n+]([O-])cc1-c1c(C(F)F)ccc(Cl)c1F (centres unmarked) [Example Q75]
31 | 80.4 | [O-][n+]1cc(-c2c(C(F)F)ccc(Cl)c2F)ccc1C(Cn1cc(F)cn1)n1cc(-c2ccnc(C(F)(F)F)c2)cn1 (single isomer, unassigned) [Example Q23]
32 | 59.5 | [O-][n+]1cc(-c2c(-n3cnnn3)ccc(Cl)c2F)ccc1C(Cn1cc(F)cn1)n1cc(-c2ccnc(C(F)(F)F)c2)cn1 (centres unmarked) [Example P332]
33 | 46.3 | [O-][n+]1cc(-c2c(-n3cnnn3)ccc(Cl)c2F)ccc1C(CC1CC1)n1cc(-c2ccnc(F)c2)cn1 (single isomer, unassigned) [Example P264]
34 | 767 | Cc1nc(N)ccc1-c1cnn(C(CCOC(F)F)c2ccc(-c3c(-n4cnnn4)ccc(Cl)c3F)c[n+]2[O-])c1 (single isomer, unassigned) [Example P343]
35 | 17.8 | Nc1ccc(-c2cnn(C(Cn3cc(F)cn3)c3ccc(-c4c(C(F)F)ccc(Cl)c4F)c[n+]3[O-])c2)c(F)n1 (single isomer, unassigned) [Example Q25]
36 | 6.8 | Nc1ncc(-c2cnn(C(Cc3ccc(Cl)cc3)c3ccc(-c4c(-n5cnnn5)ccc(Cl)c4F)c[n+]3[O-])c2)cc1F (centres unmarked) [Example P162]
37 | 29 | Cn1ncc(F)c1-c1cnn([C@H](CCOC(F)F)c2ccc(-c3c(-n4cc(Cl)nn4)ccc(Cl)c3F)c[n+]2[O-])c1 [Example P680]
38 | 16.2 | Cc1cc(-c2cnn(C(Cn3cccn3)c3ccc(-c4c(-n5cnnn5)ccc(Cl)c4F)c[n+]3[O-])c2)ccn1 (centres unmarked) [Example P285]
39 | 2.2 | Nc1ccc(-c2cnn(C(CCOC(F)F)c3ccc(-c4c(-n5cnnn5)ccc(Cl)c4F)c[n+]3[O-])c2)c(F)n1 (single isomer, unassigned) [Example P297]
40 | 23.5 | N#Cc1cn(-c2ccc(Cl)c(F)c2-c2ccc([C@@H](CCOC(F)F)n3cc(-c4cnnn4C(F)F)cn3)[n+]([O-])c2)nn1 [Example P817]
41 | 350 | O=C(Nc1ccnc(F)c1-c1cnn(C(Cc2ccc(F)cc2)c2ccc(-c3c(-c4cnco4)ccc(Cl)c3F)c[n+]2[O-])c1)C1CC1 (centres unmarked) [Example P148]
42 | 96.7 | Cn1nncc1-c1cnn([C@H](Cn2cc(F)cn2)c2ccc(-c3c(-n4cc(Cl)nn4)ccc(Cl)c3F)c[n+]2[O-])c1 [Example P537]
43 | 17.7 | Cn1nnc(F)c1-c1cnn([C@H](Cc2ccc(C(F)(F)F)nc2)c2ccc(-c3c(-n4cnnn4)ccc(Cl)c3F)c[n+]2[O-])c1 [Example P780]
44 | 31.2 | [O-][n+]1cc(-c2c(-n3cc(Cl)nn3)ccc(Cl)c2F)ccc1C(Cn1cc(F)cn1)n1cc(-c2ccnc(C(F)(F)F)c2)cn1 (single isomer, unassigned) [Example P480]
45 | 88.1 | Cn1ncc2cc(-c3cnn(C(CC4CC4)c4ccc(-c5c(-n6cnnn6)ccc(Cl)c5F)c[n+]4[O-])c3)ccc21 (centres unmarked) [Example P265]
46 | 670 | [O-][n+]1ccc(-c2cnn(C(Cn3cccn3)c3ccc(-c4c(-n5cnnn5)ccc(Cl)c4F)c[n+]3[O-])c2)cc1C(F)F (single isomer, unassigned) [Example P339]
47 | 158 | [O-][n+]1cc(-c2c(-n3cnnn3)ccc(Cl)c2F)ccc1C(Cc1ccc(F)cc1)n1cc(-c2ccncc2)cn1 (single isomer, unassigned) [Example P236]
48 | 39.3 | NC(=O)C1CC1CC(c1ccc(-c2c(-n3cnnn3)ccc(Cl)c2F)c[n+]1[O-])n1cc(-c2ccc(N)nc2F)cn1 (single isomer, unassigned) [Example P340]
49 | 9 | Cc1cc(-c2cnn(C(Cn3cccn3)c3ccc(-c4c(-n5cnnn5)ccc(Cl)c4F)c[n+]3[O-])c2)ccn1 (centres unmarked) [Example P310]
50 | 0.8 | NC(=O)c1ccc(-c2cnn(C(Cc3ccn(C(F)F)n3)c3ccc(-c4c(C(F)F)ccc(Cl)c4F)c[n+]3[O-])c2)cc1 (single isomer, unassigned) [Example Q69]
51 | 4.7 | O=C(O)c1ccc(-c2cnn(C(Cc3ccn(C(F)F)n3)c3ccc(-c4c(C(F)F)ccc(Cl)c4F)c[n+]3[O-])c2)cc1F (single isomer, unassigned) [Example Q64]
52 | 382 | O=C(O)c1ccc(-c2cnn(C(CN3CCCC3=O)c3ccc(-c4c(C(F)F)ccc(Cl)c4F)c[n+]3[O-])c2)cc1 (single isomer, unassigned) [Example Q15]
53 | 210 | [2H]C([2H])([2H])n1nccc1-c1cnn([C@@H](CCOC(F)F)c2ccc(-c3c(-n4cnnn4)ccc(Cl)c3F)c[n+]2[O-])c1 [Example P557]
